The source of these data is patent US20170296521A1, “PHARMACEUTICAL COMPOSITION FOR SUPPRESSION OF THROMBOEMBOLISM AFTER STENT PLACEMENT” (priority 2014, published 2017).

The experiment has as its system thrombus formation on stents in arteriovenous shunts. Put plainly: rat stent thrombosis model (AV shunt with stents), amount of protein in thrombus. The class given is in vivo. To be noted: for suppression of thrombus formation (rate of inhibition of amount of protein in thrombus): Example 1, FIG. 1A; for dose responsiveness of the antithrombotic effect: Example 1, Spearman's correlation coefficient test, P<0.001. As for the experimental part: Each rat was anesthetized with thiopental sodium (100 mg/mL/kg, i.p.) and placed on a warming mat. 18 minutes after the start of the anesthesia, polyethylene tubes (approximately 34 cm) containing four stents were inserted into the right and left carotid arteries and jugular veins to produce arteriovenous shunts (hereinafter, referred to as “AV shunts”). Blood flow was started in the shunts. 30 minutes after the start of the blood flow, the stents with thrombus attached thereto were taken out, and the amount of protein in the thrombus was measured.
A 0.5% MC solution (10 mL/kg or 15 mL/kg) was orally administered to a control group. […] The collected thrombus-attached stents were stored at −20° C. until protein quantification. […] Then, the anti-FXa activity in the plasma was measured.
Aspirin (5 mg/15 ml/kg) or clopidogrel (3 mg/10 ml/kg) was orally administered to each rat fasted overnight. […] A 0.5% MC solution (10 mL/kg or 15 mL/kg) was orally administered to a control group.
Amount of protein in thrombus: The thrombus-attached stents were placed in 0.9 mL of a 0.1 N NaOH solution containing 2% Na2CO3 and boiled for approximately 30 minutes to solubilize protein.

Counter-ions that a name gives are not always drawn.

Consider `CN1CCc2nc(C(=O)N[C@@H]3C[C@@H](C(=O)N(C)C)CC[C@@H]3NC(=O)C(=O)Nc3ccc(Cl)cn3)sc2C1.Cc1ccc(S(=O)(=O)O)cc1` [edoxaban, N-(5-chloropyridin-2-yl)-N′-[(1S,2R,4S)-4-(dimethylcarbamoyl)-2-(5-methyl-4,5,6,7-tetrahydro[1,3]thiazolo[5,4-c]pyridine-2-carboxamido)cyclohexyl]oxamide], for which the “dose responsiveness of the antithrombotic effect” value (“dose responsiveness” for short) was “dose-dependent”. Moreover, where the note is “0.3 mg/kg orally 30 minutes before AV shunting”, the “suppression of thrombus formation (rate of inhibition of amount of protein in thrombus)” value is recorded as 37%. Also, the “suppression of thrombus formation (rate of inhibition of amount of protein in thrombus)” value (1 mg/kg orally 30 minutes before AV shunting) was 70%. The “suppression of thrombus formation (rate of inhibition of amount of protein in thrombus)” value (3 mg/kg orally 30 minutes before AV shunting) amounted to 86%. Moreover, the “rate of suppression of thrombus formation” value (Example 2, FIG. 5A, edoxaban 0.5 mg/kg orally alone) was 42%. Also, the “rate of suppression of thrombus formation” value (Example 2, FIG. 6A, edoxaban 0.5 mg/kg orally alone) is reported as 25%.

For ticagrelor sulfate, the “dose responsiveness” value was “dose-dependent”. Besides, for the setting “Example 1, FIG. 4, 0.3 mg/kg orally two hours before AV shunting”, the “suppression of thrombus formation” value amounted to 67%. The “suppression of thrombus formation” value (Example 1, FIG. 4, 1 mg/kg orally two hours before AV shunting) is listed as 74%. For the same molecule, the “suppression of thrombus formation” value (Example 1, FIG. 4, 3 mg/kg orally two hours before AV shunting) was found to be 89%.

In the case of `CC(=O)Oc1ccccc1C(=O)O` [aspirin], the “dose responsiveness” value is “dose-dependent”. For the setting “Example 1, FIG. 2A, 5 mg/kg orally two hours before AV shunting”, the “rate of suppression of thrombus formation” value amounted to 40%. Besides, under “Example 1, FIG. 2A, 10 mg/kg orally two hours before AV shunting”, the “rate of suppression of thrombus formation” value was determined as 47%. The “significance of the suppression of thrombus formation vs control” value (Example 1, FIG. 2A, 5 and 10 mg/kg orally, Dunnett's test) is “no significant effect”. Besides, the “suppression of thrombus formation” value (Example 1, FIG. 2B, 10 mg/kg orally two hours before AV shunting) is 63%. In addition, the “suppression of thrombus formation” value (Example 1, FIG. 2B, 25 mg/kg orally two hours before AV shunting) is reported as 64%. The “suppression of thrombus formation” value (Example 1, FIG. 2B, 50 mg/kg orally two hours before AV shunting) is 70%. For the same molecule, the “suppression of thrombus formation” value (Example 1, FIG. 2B, 100 mg/kg orally two hours before AV shunting) was found to be 83%. Besides, the “rate of suppression of thrombus formation” value (Example 2, FIG. 5A, aspirin 5 mg/kg orally alone) stood at 42%.

For the molecule `COC(=O)[C@H](c1ccccc1Cl)N1CCc2sccc2C1` [clopidogrel, clopidogrel sulfate], the “dose responsiveness” value was “dose-dependent”. Also, where the note is “Example 1, FIG. 3, 1 mg/kg orally two hours before AV shunting”, the “suppression of thrombus formation” value is 40%. In addition, the “suppression of thrombus formation” value (Example 1, FIG. 3, 3 mg/kg orally two hours before AV shunting) was determined as 47%. Further, the “suppression of thrombus formation” value (Example 1, FIG. 3, 10 mg/kg orally two hours before AV shunting) was 84%. In addition, where the note is “Example 1, FIG. 3, 30 mg/kg orally two hours before AV shunting”, the “suppression of thrombus formation” value stood at 94%. Further, the “rate of suppression of thrombus formation” value (Example 2, FIG. 6A, clopidogrel 3 mg/kg orally alone) came out at 21%.
